Measurements taken from patent US11970493B2, “Autotaxin inhibitor compounds” (ILDONG PHARMACEUTICAL CO., LTD., priority 2020, dated 2024).
Structures can show the parent of a compound that is named as a salt.

Molecular target: hATX/ENPP2 (Homo sapiens, UniProt Q13822)
Assay: hATX/ENPP2 biochemical assay using 16:0-LPC as substrate (Amplex Red/choline oxidase/HRP fluorescence)
Conditions: hENPP2 2.5 nM, LPC (16:0) substrate
Outline: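 Enzyme preincubated with compounds 15 min at room temperature in 50 mM Tris-HCl pH 8.0, 140 mM NaCl, 5 mM CaCl2, 0.01% Triton X-100. Reaction started with 80 μM LPC (16:0) stock plus Amplex Red/choline oxidase/HRP mix; fluorescence (ex 530/em 590 nm) read kinetically. IC50 from slope between 60 and 70 min.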

Structure (SMILES)	IC50 [nM]
CCc1nc2ccc(-c3cnc(N4CCC(NC5CCNCC5)CC4)nc3)cn2c1N(C)c1nc(-c2ccc(F)cc2)c(C#N)s1 [Compound 69 formate, 2-((2-ethyl-6-(2-(4-(piperidin-4-ylamino)piperidin-1-yl)pyrimidin-5-yl)imidazo[1,2-a]pyridin-3-yl)(methyl)amino)-4-(4-fluorophenyl) thiazole-5-carbonitrile formate]	≤ 20
CCc1nc2ccc(-c3cnc(N4CCC(C(=O)NC5CNC5)CC4)nc3)cn2c1N(C)c1nc(-c2ccc(F)cc2)c(C#N)s1 [Compound 72 hydrochloride, N-(azetidin-3-yl)-1-(5-(3-((5-cyano-4-(4-fluorophenyl)thiazol-2-yl)(methyl)amino)-2-ethylimidazo[1,2-a]pyridin-6-yl)pyrimidin-2-yl)piperidine-4-carboxamide hydrochloride]	≤ 20
CCc1nc2ccc(-c3cnc(N4CCC(C(=O)NC5CCNCC5)CC4)nc3)cn2c1N(C)c1nc(-c2ccc(F)cc2)c(C#N)s1 [Compound 73, 1-(5-(3-((5-cyano-4-(4-fluorophenyl)thiazol-2-yl)(methyl)amino)-2-ethylimidazo[1,2-a]pyridin-6-yl)pyrimidin-2-yl)-N-(piperidin-4-yl)piperidine-4-carboxamide]	≤ 20
CCc1nc2ccc(-c3cnc(N4CCC(NC(=O)[C@H]5C[C@H](O)CN5)CC4)nc3)cn2c1N(C)c1nc(-c2ccc(F)cc2)c(C#N)s1 [Compound 74, (2R,4S)—N-(1-(5-(3-((5-cyano-4-(4-fluorophenyl)thiazol-2-yl)(methyl)amino)-2-ethylimidazo[1,2-a]pyridin-6-yl)pyrimidin-2-yl)piperidin-4-yl)-4-hydroxypyrrolidine-2-carboxamide]	≤ 20
CCc1nc2ccc(-c3cnc(N4CCC(NC(=O)[C@@H]5C[C@H](O)CN5)CC4)nc3)cn2c1N(C)c1nc(-c2ccc(F)cc2)c(C#N)s1 [Compound 75, (2S,4S)—N-(1-(5-(3-((5-cyano-4-(4-fluorophenyl)thiazol-2-yl)(methyl)amino)-2-ethylimidazo[1,2-a]pyridin-6-yl)pyrimidin-2-yl)piperidin-4-yl)-4-hydroxypyrrolidine-2-carboxamide]	≤ 20
CCc1nc2ccc(-c3cnc(N4CCC(NC(=O)[C@H]5C[C@@H](O)CN5)CC4)nc3)cn2c1N(C)c1nc(-c2ccc(F)cc2)c(C#N)s1 [Compound 76, (2R,4R)—N-(1-(5-(3-((5-cyano-4-(4-fluorophenyl)thiazol-2-yl)(methyl)amino)-2-ethylimidazo[1,2-a]pyridin-6-yl)pyrimidin-2-vl)piperidin-4-yl)-4-hydroxypyrrolidine-2-carboxamide]	≤ 20
CCc1nc2ccc(-c3cnc(N4CCC(NC(=O)[C@@H]5C[C@@H](O)CN5)CC4)nc3)cn2c1N(C)c1nc(-c2ccc(F)cc2)c(C#N)s1 [Compound 77, (2S,4R)—N-(1-(5-(3-((5-cyano-4-(4-fluorophenyl)thiazol-2-yl)(methyl)amino)-2-ethylimidazo[1,2-a]pyridin-6-yl)pyrimidin-2-yl)piperidin-4-yl)-4-hydroxypyrrolidine-2-carboxamide]	≤ 20
CCc1nc2ccc(-c3cnc(N4CCN(C(=O)[C@@H]5C[C@@H](O)CN5C)CC4)nc3)cn2c1N(C)c1nc(-c2ccc(F)cc2)c(C#N)s1 [Compound 78, 2-((2-ethyl-6-(2-(4-((2S,4R)-4-hydroxy-1-methylpyrrolidine-2-carbonyl)piperazin-1-yl)pyrimidin-5-yl)imidazo [1,2-a]pyridin-3-yl)(methyl)amino)-4-(4-fluorophenyl)thiazole-5-carbonitrile]	≤ 20
CCc1nc2ccc(-c3cnc(N4CCN(C(=O)NC5CN(C)C5)CC4)nc3)cn2c1N(C)c1nc(-c2ccc(F)cc2)c(C#N)s1 [Compound 82 hydrochloride, 4-(5-(3-((5-cyano-4-(4-fluorophenyl)thiazol-2-yl)(methyl)amino)-2-ethylimidazo[1,2-a]pyridin-6-yl)pyrimidin-2-yl)-N-(1-methylazetidin-3-yl)piperazine-1-carboxamide hydrochloride]	≤ 20
CCc1nc2ccc(-c3cnc(N4CCC(NC(=O)C5CNC5)CC4)nc3)cn2c1N(C)c1nc(-c2ccc(F)cc2)c(C#N)s1 [Compound 83 hydrochloride, N-(1-(5-(3-((5-cyano-4-(4-fluorophenyl)thiazol-2-yl)(methyl)amino)-2-ethylimidazo[1,2-a]pyridin-6-yl)pyrimidin-2-yl)piperidin-4-yl)azetidine-3-carboxamide hydrochloride]	≤ 20
CCc1nc2ccc(-c3cnc(N4CCC(NC(=O)C5CCNCC5)CC4)nc3)cn2c1N(C)c1nc(-c2ccc(F)cc2)c(C#N)s1 [Compound 84, N-(1-(5-(3-((5-cyano-4-(4-fluorophenyl)thiazol-2-yl)(methyl)amino)-2-ethylimidazo[1,2-a]pyridin-6-yl)pyrimidin-2-yl)piperidin-4-yl)piperidine-4-carboxamide]	≤ 20
CCc1nc2ccc(-c3ccc(N4CCN(C(=O)C5CN(C)C5)CC4)nc3)cn2c1N(C)c1nc(-c2ccc(F)cc2)c(C#N)s1 [Compound 86, 2-((2-ethyl-6-(6-(4-(1-methylazetidine-3-carbonyl)piperazin-1-yl)pyridin-3-yl)imidazo[1,2-a]pyridin-3-yl)(methyl)amino)-4-(4-fluorophenyl)thiazole-5-carbonitrile]	20 to 200
CCc1nc2ccc(-c3ccc(N4CCC(NC5(CO)CC5)CC4)nc3)cn2c1N(C)c1nc(-c2ccc(F)cc2)c(C#N)s1 [Compound 88, 2-((2-ethyl-6-(6-(4-((1-(hydroxymethyl)cyclopropyl)amino)piperidin-1-yl)pyridin-3-yl)imidazo[1,2-a]pyridin-3-yl)(methyl)amino)-4-(4-fluorophenyl)thiazole-5-carbonitrile]	≤ 20
CCc1nc2ccc(-c3ccc(N4CCC(NC5CNC5)CC4)nc3)cn2c1N(C)c1nc(-c2ccc(F)cc2)c(C#N)s1 [Compound 89 hydrochloride, 2-((6-(6-(4-(azetidin-3-ylamino)piperidin-1-yl)pyridin-3-yl)-2-ethylimidazo[1,2-a]pyridin-3-yl)(methyl)amino)-4-(4-fluorophenyl)thiazole-5-carbonitrile hydrochloride]	≤ 20
CCc1nc2ccc(-c3ccc(N4CCC(NC5CCNCC5)CC4)nc3)cn2c1N(C)c1nc(-c2ccc(F)cc2)c(C#N)s1 [Compound 90, 2-((2-ethyl-6-(6-(4-(piperidin-4-ylamino)piperidin-1-yl)pyridin-3-yl)imidazo[1,2-a]pyridin-3-yl)(methyl)amino)-4-(4-fluorophenyl)thiazole-5-carbonitrile]	≤ 20
CCc1nc2ccc(-c3ccc(N4CCN(CC(=O)N5CC[C@H](O)C5)CC4)nc3)cn2c1N(C)c1nc(-c2ccc(F)cc2)c(C#N)s1 [Compound 91, (S)-2-((2-ethyl-6-(6-(4-(2-(3-hydroxypyrrolidin-1-yl)-2-oxoethyl)piperazin-1-yl)pyridin-3-yl)imidazo[1,2-a]pyridin-3-yl)(methyl)amino)-4-(4-fluorophenyl) thiazole-5-carbonitrile]	≤ 20
CCc1nc2ccc(-c3ccc(N4CCN(C(=O)NC5CCNCC5)CC4)nc3)cn2c1N(C)c1nc(-c2ccc(F)cc2)c(C#N)s1 [Compound 94, 4-(5-(3-((5-cyano-4-(4-fluorophenyl)thiazol-2-yl)(methyl)amino)-2-ethylimidazo[1,2-a]pyridin-6-yl)pyridin-2-yl)-N-(piperidin-4-yl)piperazine-1-carboxamide]	20 to 200
CCc1nc2ccc(-c3ccc(N4CCN(C(=O)[C@@H]5C[C@@H](O)CN5)CC4)nc3)cn2c1N(C)c1nc(-c2ccc(F)cc2)c(C#N)s1 [Compound 95, 2-((2-ethyl-6-(6-(4-((2S,4R)-4-hydroxypyrrolidine-2-carbonyl)piperazin-1-yl)pyridin-3-yl)imidazo[1,2-a]pyridin-3-yl)(methyl)amino)-4-(4-fluorophenyl)thiazole-5-carbonitrile]	≤ 20
CCc1nc2ccc(-c3ccc(N4CCN(C(=O)NC5CNC5)CC4)nc3)cn2c1N(C)c1nc(-c2ccc(F)cc2)c(C#N)s1 [Compound 96 hydrochloride, N-(azetidin-3-yl)-4-(5-(3-((5-cyano-4-(4-fluorophenyl)thiazol-2-yl)(methyl)amino)-2-ethylimidazo[1,2-a]pyridin-6-yl)pyridin-2-yl) piperazine-1-carboxamide hydrochloride]	20 to 200
CCc1nc2ccc(-c3ccc(N4CC(C(=O)NC5(CO)CC5)C4)nc3)cn2c1N(C)c1nc(-c2ccc(F)cc2)c(C#N)s1 [Compound 97, 1-(5-(3-((5-cyano-4-(4-fluorophenyl)thiazol-2-yl)(methyl)amino)-2-ethylimidazo[1,2-a]pyridin-6-yl)pyridin-2-yl)-N-(1-(hydroxymethyl)cyclopropyl)azetidine-3-carboxamide]	20 to 200
CCc1nc2ccc(-c3ccc(N4CCC(NC(=O)C5(O)CC5)CC4)nc3)cn2c1N(C)c1nc(-c2ccc(F)cc2)c(C#N)s1 [Compound 98, N-(1-(5-(3-((5-cyano-4-(4-fluorophenyl)thiazol-2-yl)(methyl)amino)-2-ethylimidazo[1,2-a]pyridin-6-yl)pyridin-2-yl)piperidin-4-yl)-1-hydroxycyclopropane-1-carboxamide]	≤ 20
CCc1nc2ccc(-c3cnc(C4CCN(C(=O)C5CC5)CC4)nc3)cn2c1N(C)c1nc(-c2ccc(F)cc2)c(C#N)s1 [Compound 99, 2-((6-(2-(1-(cyclopropanecarbonyl)piperidin-4-yl)pyrimidin-5-yl)-2-ethylimidazo[1,2-a]pyridin-3-yl)(methyl)amino)-4-(4-fluorophenyl)thiazole-5-carbonitrile]	20 to 200
CCc1nc2ccc(-c3cnc(C4CCN(C(=O)C5CCC5)CC4)nc3)cn2c1N(C)c1nc(-c2ccc(F)cc2)c(C#N)s1 [Compound 100, 2-((6-(2-(1-(cyclobutanecarbonyl)piperidin-4-yl)pyrimidin-5-yl)-2-ethylimidazo[1,2-a]pyridin-3-yl)(methyl)amino)-4-(4-fluorophenyl)thiazole-5-carbonitrile]	20 to 200
